Measurements reported in patent US5817800A, “Inhibitors of β-glucuronidase and their use in the treatment of carcinamatosis and inflammation” (Hoechst Aktiengesellschaft, priority 1996, dated 1998).
Where a name gives a salt, the structure may show the parent alone.

Target: T1, human β-glucuronidase (Homo sapiens, UniProt P08236)
T1 sequence (P08236 23-651): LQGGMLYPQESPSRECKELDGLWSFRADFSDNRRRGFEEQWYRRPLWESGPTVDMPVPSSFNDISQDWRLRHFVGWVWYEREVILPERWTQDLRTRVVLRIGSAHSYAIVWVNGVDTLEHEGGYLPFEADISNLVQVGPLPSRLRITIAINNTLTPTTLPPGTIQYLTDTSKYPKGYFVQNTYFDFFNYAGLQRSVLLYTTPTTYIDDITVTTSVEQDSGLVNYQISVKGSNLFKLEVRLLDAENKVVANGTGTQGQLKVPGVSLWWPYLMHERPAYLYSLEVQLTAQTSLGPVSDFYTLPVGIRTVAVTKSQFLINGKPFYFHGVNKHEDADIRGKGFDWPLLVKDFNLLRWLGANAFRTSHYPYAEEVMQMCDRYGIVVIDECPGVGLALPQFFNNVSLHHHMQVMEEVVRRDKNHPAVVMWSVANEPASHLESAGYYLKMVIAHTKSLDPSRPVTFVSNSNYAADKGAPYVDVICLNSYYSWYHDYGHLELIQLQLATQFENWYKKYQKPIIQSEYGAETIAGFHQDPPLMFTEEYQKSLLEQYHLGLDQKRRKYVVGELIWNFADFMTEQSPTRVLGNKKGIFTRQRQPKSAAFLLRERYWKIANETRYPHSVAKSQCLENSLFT
Experiment: Inhibition of human β-glucuronidase (4-methylumbelliferyl-β-D-glucuronide substrate, fluorescence)
Type: biochemical
Conditions: substrate 4-methylumbelliferyl-β-D-glucuronide; 200 mM sodium acetate, 0.1 mg/ml BSA, pH 5; 10 min, 37° C.
Experimental: The inhibition of human β-glucuronidase was determined using 4-methylumbelliferyl-β-D-glucuronide as a substrate. The test mixture contained 75 μl of 2.5 mM 4-methylumbelliferyl-β-D-glucuronide, 25 μl of enzyme (0.6 μg/ml) and 10 μl of the compound of the formula I in a concentration range from 0.0001 to 100 mM, all in 200 mM sodium acetate buffer and 0.1 mg/ml bovine serum albumin (BSA), pH 5. After a 10-minute incubation at 37° C., the mixture was stopped with 1.5 ml of 0.2 M glycine/0.2% SDS, pH 11.7. The methylumbelliferone released by the enzyme was measured in a fluorescence photometer at 360 nm excitation and 450 nm emission wavelength.
The IC50 -values were calculated from the inhibitor dilution series using the software program GraFit 2.0 (Erithacus Software Ltd.).

Question: With O=C(Nc1ccccc1)O/N=C1\O[C@H](C(=O)O)[C@@H](O)[C@H](O)[C@H]1O [Example 1, (Z)-O-(D-Glucopyranuronosylidene)amino N-phenylcarbamate (sodium salt)] as the compound, how does the IC50 read?
Answer: Its IC50 is 0.0006 mM.

Question: For O=C(Nc1ccccc1)O/N=C1\O[C@H](P(=O)(O)O)[C@@H](O)[C@H](O)[C@H]1O [Example 2, Sodium (5R,Z)-O-(5-C-phosphonato-D-xylopyranosylidene) amino N-phenylcarbamate], which IC50 is on record?
Answer: The IC50 was 11 mM.
